Experimental data taken from the supplement of paper PMC10307832.

Legend:
Experiment in all cases: relative viability (nuclei count vs DMSO), 5 days (fraction); higher = more cells survive
Masitinib + Dasatinib = compound: Cc1ccc(NC(=O)c2ccc(CN3CCN(C)CC3)cc2)cc1Nc1nc(-c2cccnc2)cs1 [Masitinib] + Cc1nc(Nc2ncc(C(=O)Nc3c(C)cccc3Cl)s2)cc(N2CCN(CCO)CC2)n1 [Dasatinib] (partner 0.075 µM)
Outline: (§1)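 Lung cancer cell lines, seeded in 1536-well plates, were treated the following day by pin tool with a single drug or with five library-drug doses (not always all listed) in √10 steps on top of a fixed anchor-drug dose. Cells were fixed and nuclei stained in one step after 5 days, and nuclei were counted. Relative viability is the nuclei count for treated wells divided by that for vehicle wells, reported as medians of duplicate plates.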

[1] = compound: CC1=CC(=CC=C1)NC2=NC(=CS2)C3=CC=NC=C3 + Nc1ncn([C@H]2C[C@H](O)[C@@H](CO)O2)c(=O)n1 [Decitabine] (partner 2 µM)
Outline: as §1

Masitinib + Luminespib = compound: Cc1ccc(NC(=O)c2ccc(CN3CCN(C)CC3)cc2)cc1Nc1nc(-c2cccnc2)cs1 [Masitinib] + CCNC(=O)c1noc(-c2cc(C(C)C)c(O)cc2O)c1-c1ccc(CN2CCOCC2)cc1 [Luminespib] (partner 0.01 µM)
Outline: as §1

[2] = compound: CC1=CC(=CC=C1)NC2=NC(=CS2)C3=CC=NC=C3 + CC(C)C[C@H](NC(=O)[C@H](Cc1ccccc1)NC(=O)c1cnccn1)B(O)O [Bortezomib] (partner 0.002 µM)
Outline: as §1

| Cell Line | relative viability (Masitinib + Dasatinib; first compound 0.01 µM) | relative viability (Masitinib + Dasatinib; first compound 0.03162 µM) | relative viability (Masitinib + Dasatinib; first compound 0.1 µM) | relative viability (Masitinib + Dasatinib; first compound 0.3162 µM) | relative viability (Masitinib + Dasatinib; first compound 1 µM) | relative viability ([1]; first compound 0.08 µM) | relative viability ([1]; first compound 0.253 µM) | relative viability ([1]; first compound 0.8 µM) | relative viability ([1]; first compound 2.53 µM) | relative viability ([1]; first compound 8 µM) | relative viability (Masitinib + Luminespib; first compound 0.01 µM) | relative viability (Masitinib + Luminespib; first compound 0.03162 µM) | relative viability (Masitinib + Luminespib; first compound 0.1 µM) | relative viability (Masitinib + Luminespib; first compound 0.3162 µM) | relative viability (Masitinib + Luminespib; first compound 1 µM) | relative viability ([2]; first compound 0.08 µM) | relative viability ([2]; first compound 0.253 µM) | relative viability ([2]; first compound 0.8 µM) | relative viability ([2]; first compound 2.53 µM) | relative viability ([2]; first compound 8 µM) |
| --- | --- | --- | --- | --- | --- | --- | --- | --- | --- | --- | --- | --- | --- | --- | --- | --- | --- | --- | --- | --- |
| NCI-H661 | 0.883 | 1.03 | 1.04 | 0.795 | 0.658 | 0.514 | 0.585 | 0.556 | 0.505 | 0.533 | 0.831 | 0.916 | 0.951 | 0.897 | 0.903 | 0.864 | 0.862 | 0.759 | 0.653 | 0.706 |
| NCI-H727 | 0.332 | 0.315 | 0.346 | 0.383 | 0.35 | 0.88 | – | 0.864 | – | 0.836 | 0.494 | 0.324 | 0.831 | 0.341 | 0.416 | 0.547 | 0.774 | 0.834 | 0.549 | 0.446 |
| NCI-H838 | 0.304 | 0.258 | 0.344 | 0.266 | 0.229 | 0.458 | 0.473 | 0.501 | 0.448 | 0.457 | 0.314 | 0.309 | 0.245 | 0.241 | 0.263 | 0.658 | 0.742 | 0.934 | 0.861 | 0.651 |
| NCI-H1355 | 0.69 | 0.485 | 0.701 | 0.436 | 0.69 | 0.347 | 0.311 | 0.351 | 0.318 | 0.356 | 0.643 | 0.564 | 0.766 | 0.623 | 0.738 | 1.08 | 1.02 | 0.991 | 0.465 | 0.716 |
| NCI-H1437 | 0.457 | 0.396 | 0.454 | 0.527 | 0.387 | 0.593 | 0.521 | 0.742 | 0.384 | 0.48 | 1.15 | 1.19 | 1.16 | 1.18 | 1.14 | 0.473 | 0.523 | 0.566 | 0.437 | 0.355 |
| NCI-H1650 | 0.366 | 0.32 | 0.348 | 0.276 | 0.27 | 0.384 | 0.38 | 0.478 | 0.408 | 0.378 | 0.195 | 0.227 | 0.221 | 0.191 | 0.206 | 0.194 | 0.193 | 0.213 | 0.213 | 0.191 |
| NCI-H1651 | 0.403 | 0.469 | 0.443 | 0.383 | 0.419 | 0.558 | 0.55 | 0.66 | 0.475 | 0.628 | 0.823 | 1.23 | 0.822 | 0.75 | 0.769 | 0.939 | 0.923 | 0.933 | 0.822 | 0.987 |
| NCI-H1666 | – | 0.713 | 0.858 | 0.818 | 0.817 | 0.682 | 0.691 | 0.67 | 0.472 | 0.636 | – | 1.05 | 1.1 | 1.03 | 1.01 | 0.503 | 0.553 | 0.41 | 0.388 | 0.409 |
